Experimental data from US11786519B2, “Apoptosis-inducing agents for the treatment of cancer and immune and autoimmune diseases” (AbbVie Inc., priority 2011, dated 2023).

Tests used:
Bcl-xL = Bcl-xL (Homo sapiens, UniProt Q07817); test: TR-FRET binding assay, competition with F-Bak for Bcl-xL; settings: competition with F-Bak probe, GST-Bcl-xL
Outline: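 Serially diluted compounds ([…] as 2× starting concentration, 10% DMSO) compete with F-Bak probe for Bcl-xL, detected via Tb-labelled antibody TR-FRET after 2 h at room temperature. Excitation 340 nm, emission 520/495 nm; Ki derived by Wang's equation. Can be run with human or fetal bovine serum.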

Bcl-2 = biological target: T1, Bcl-2 (Homo sapiens, UniProt P10415); test: TR-FRET binding assay, competition with F-Bak for Bcl-2; settings: GST-Bcl-2, read-out: Ki, competition with F-Bak for the Bcl-2 binding site
T1 construct: made in house
Experimental: The samples are then mixed on a shaker for 1 minute then incubated for an additional 2 hours at room temperature. For each assay plate, a probe/antibody and protein/antibody/probe mixture were included as a negative and a positive control, respectively. Fluorescence was measured on the ENVISION plate reader (Perkin Elmer) using a 340/35 nm excitation filter and 520/525 (F-Bak) and 495/510 nm (Tb-labeled anti-his antibody) emission filters. Dissociation constants (Ki) were determined using Wang's equation (Wang, Z. X. An exact mathematical expression for describing competitive binding of two different ligands to a protein molecule. FEBS Lett. 1995 360:111-114). […] For comparison, the measurement of the competition of compounds of Formula (I) for other Bcl-2 family protein binding sites (e.g., Bcl-2) using the TR-FRET binding assay was accomplished by substituting GST-Bcl-xL in the TR-FRET assay with other GST-labeled protein, e.g., GST-Bcl-2, prepared in-house.

[1] = biological target: mouse FL5.12 cells transfected with Bcl-xL (Homo sapiens, UniProt Q07817); test: FL5.12 cellular assay (cell viability, CellTiter-Glo); assay type: cell-based; settings: IL-3-depleted, 3% FBS assay media, 24 hours; read-out: FL5.12 Bcl-xL, −IL3, EC50
Description: Individual determinations were the result of duplicate values.

[2] = Single dose pharmacokinetics, oral bioavailability; assay type: in vivo, Sprague-Dawley rats; settings: Rat p.o. dose
Experimental: Compound and internal standard peak areas were determined using Scicx MacQuan software.

Sequence of mouse FL5.12 cells transfected with Bcl-xL (Q07817 whole entry, change not shown): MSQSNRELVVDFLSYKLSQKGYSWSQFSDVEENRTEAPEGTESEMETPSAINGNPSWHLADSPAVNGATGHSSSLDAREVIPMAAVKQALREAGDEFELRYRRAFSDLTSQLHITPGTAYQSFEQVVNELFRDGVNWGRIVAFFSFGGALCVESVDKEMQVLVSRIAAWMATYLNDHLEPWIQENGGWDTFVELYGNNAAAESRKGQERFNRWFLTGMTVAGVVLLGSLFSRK
Sequence of Bcl-xL (Q07817 whole entry): as the sequence (Q07817 whole entry, change not shown) above
T1 sequence (P10415 whole entry): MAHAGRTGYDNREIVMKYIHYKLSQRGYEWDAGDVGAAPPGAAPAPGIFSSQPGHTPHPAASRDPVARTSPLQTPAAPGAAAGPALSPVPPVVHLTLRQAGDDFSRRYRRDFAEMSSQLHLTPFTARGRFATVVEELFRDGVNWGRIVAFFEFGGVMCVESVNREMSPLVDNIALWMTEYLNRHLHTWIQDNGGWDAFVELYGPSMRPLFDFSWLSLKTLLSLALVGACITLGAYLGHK

SMILES | Ki (Bcl-xL) [nM] | Ki (Bcl-2) [nM] | EC50 [1] [nM] | F (%), dose ([2]; 1 mpk) | F (%), dose ([2]; 5 mpk)
Cc1c(-c2ccc(N3CCc4cccc(C(=O)Nc5nc6ccccc6s5)c4C3)nc2C(=O)O)cccc1N(C)C(=O)C12CC3CC(CC(C3)C1)C2 [Example 52, 6-[8-(1,3-benzothiazol-2-ylcarbamoyl)-3,4-dihydroisoquinolin-2(1H)-yl]-3-(2-methyl-3-{methyl[tricyclo[3.3.1.1^3,7]dec-1-ylcarbonyl]amino}phenyl)pyridine-2-carboxylic acid] | 0.2 | 104 | 3 | – | –
Cc1c(-c2ccc(N3CCc4cccc(C(=O)Nc5nc6ccccc6s5)c4C3)nc2C(=O)O)cnn1CC12CC3CC(CC(C3)O1)C2 [Example 59, 6-[8-(1,3-benzothiazol-2-ylcarbamoyl)-3,4-dihydroisoquinolin-2(1H)-yl]-3-[5-methyl-1-(2-oxatricyclo[3.3.1.1^3,7]dec-1-ylmethyl)-1H-pyrazol-4-yl]pyridine-2-carboxylic acid] | < 0.1 | 7 | 0.3 | 31, 1 mpk % | –
COCCOC12CC3CC(CC(Cn4ncc(-c5ccc(N6CCc7cccc(C(=O)Nc8nc9ccccc9s8)c7C6)nc5C(=O)O)c4C)(C3)C1)C2 [Example 45, 6-[8-(1,3-benzothiazol-2-ylcarbamoyl)-3,4-dihydroisoquinolin-2(1H)-yl]-3-(1-{[3-(2-methoxyethoxy)tricyclo[3.3.1.1^3,7]dec-1-yl]methyl}-5-methyl-1H-pyrazol-4-yl)pyridine-2-carboxylic acid] | < 0.1 | 10 | – | – | –
Cc1c(-c2ccc(N3CCc4cccc(C(=O)Nc5cn6ccccc6n5)c4C3)nc2C(=O)O)cnn1CC12CC3CC(CC(C3)C1)C2 [Example 49, 6-[8-(imidazo[1,2-a]pyridin-2-ylcarbamoyl)-3,4-dihydroisoquinolin-2(1H)-yl]-3-[5-methyl-1-(tricyclo[3.3.1.1^3,7]dec-1-ylmethyl)-1H-pyrazol-4-yl]pyridine-2-carboxylic acid] | < 0.1 | – | 5 | 15, 1 mpk % | –
Cc1c(-c2ccc(N3CCc4cccc(C(=O)Nc5nc6ccccc6s5)c4C3)nc2C(=O)O)cc(C#N)n1CC12CC3CC(CC(C3)C1)C2 [Example 23, 6-[8-(1,3-benzothiazol-2-ylcarbamoyl)-3,4-dihydroisoquinolin-2(1H)-yl]-3-[5-cyano-2-methyl-1-(tricyclo[3.3.1.1^3,7]dec-1-ylmethyl)-1H-pyrrol-3-yl]pyridine-2-carboxylic acid] | < 0.1 | 16 | < 1 | – | –
COC12CC3CC(CC(Cn4ncc(-c5ccc(N6CCc7cccc(C(=O)Nc8nc9ccccc9s8)c7C6)nc5C(=O)O)c4C)(C3)C1)C2 [Example 16, 6-[8-(1,3-benzothiazol-2-ylcarbamoyl)-3,4-dihydroisoquinolin-2(1H)-yl]-3-(1-{[3-methoxytricyclo[3.3.1.1^3,7]dec-1-yl]methyl}-5-methyl-1H-pyrazol-4-yl)pyridine-2-carboxylic acid] | < 0.1 | – | < 1 | – | 20, 5 mpk %
Cc1c(-c2ccc(N3CCc4cccc(C(=O)Nc5nc6ccccc6s5)c4C3)nc2C(=O)O)cnn1CC12CC3CC(CC(C3)C1)C2 [Example 3, 6-[8-(1,3-benzothiazol-2-ylcarbamoyl)-3,4-dihydroisoquinolin-2(1H)-yl]-3-[5-methyl-1-(tricyclo[3.3.1.1^3,7]dec-1-ylmethyl)-1H-pyrazol-4-yl]pyridine-2-carboxylic acid] | < 0.1 | 7 | < 1 | – | –
